What was measured:
Target C = assay: RT-qPCR splicing assay panel, Target C canonical junction (CJ) mRNA; assay type: cell-based, human; conditions: Homo sapiens; Table 5 panel; canonical junction qPCR; compound concentration having 50% response in CJ decrease; read-out: Target C IC50 (decrease in CJ mRNA levels)
Outline: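 Cells are plated (A673 allowed 24 h to adhere), dosed with an 11-point 3-fold series topping at 10 uM final, and incubated 24 h at 37 °C. Lysis is followed by cDNA synthesis and qPCR of the CJ transcript, normalized to a housekeeping gene.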

MYB = assay: HiBiT protein abundance assay, MYB HiBiT K562 cell line; assay type: cell-based, human; conditions: HiBiT K562 cell line, 24 hours, top dose 10 μM; read-out: Effect on protein abundance, MYB (IC50 category)
Outline: (§1)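 Endogenous targets in K562 knock-in lines carried a HiBiT tag and were treated for 24 h at 37 °C with 10-point 3-fold dilutions (top 10 μM final, DMSO ≤0.25%). Abundance was read as lytic Nano-Glo HiBiT luminescence. IC50 came from a four-parameter logistic fit of normalized response.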

HTT = assay: HiBiT protein abundance assay, HTT HiBiT K562 cell line; assay type: cell-based, human; conditions: HiBiT K562 cell line, 24 hours, top dose 10 μM; read-out: Effect on protein abundance, HTT (IC50 category)
Outline: as §1

[1] = tested on: K562 (human chronic myelogenous leukemia) cells; assay: Cell Titer Glo 2.0 cell viability assay; assay type: cell-based; conditions: Homo sapiens, K562, 72 h, K562 cells, 72 hours, Cell Titer Glo 2.0; read-out: K562 GI50

SMILES | IC50 (Target C) [µM] | IC50 (MYB) [µM] | IC50 (HTT) [µM] | GI50 [1] [µM]
Cc1cn2nc(-c3ccc4c(=O)n([C@H]5CCNC6(CC6)C5)cnc4c3)cc(C)c2n1 [Compound 349, 3-[(7S)-4-azaspiro[2.5]octan-7-yl]-7-{2,8-dimethylimidazo[1,2-b]pyridazin-6-yl}quinazolin-4-one] | 1 to 10 | 0.1 to 1 | 0.1 to 1 | 1 to 10
Cc1cn2cc(-c3cc(F)c4c(=O)n(C5CCNCC5)cnc4c3)cc(C)c2n1 [Compound 317] | 0.1 to 1 | < 0.1 | 0.1 to 1 | 0.1 to 1
Cc1cn2cc(-c3cc(F)c4c(=O)n(C5=CCNCC5)cnc4c3)cc(F)c2n1 [Compound 342] | 0.1 to 1 | 0.1 to 1 | 0.1 to 1 | < 0.1
Cc1cn2cc(-c3cc(F)c4c(=O)n([C@H]5CCN[C@H](C)C5)cnc4c3)cc(F)c2n1 [Compound 346, trans-5-fluoro-7-(8-fluoro-2-methylimidazo[1,2-a]pyridin-6-yl)-3-(2-methylpiperidin-4-yl)quina-zolin-4(3H)-one] | 0.1 to 1 | < 0.1 | 0.1 to 1 | 0.1 to 1
Cc1cn2cc(-c3cc(F)c4c(=O)n(C5CCNCC5)cnc4c3)nc2c(C)n1 [Compound 319] | 1 to 10 | 0.1 to 1 | 1 to 10 | 0.1 to 1
Cc1cn2nc(-c3ccc4c(=O)n([C@@H]5C[C@H]6CC[C@@H](C5)N6)ncc4c3)cc(C)c2n1 [Compound 280] | 1 to 10 | 0.1 to 1 | 0.1 to 1 | 1 to 10
Cc1cn2nc(-c3cc(N(C)C)c4c(=O)n(C5CCNC6(CC6)C5)cnc4c3)cc(C)c2n1 (centres unmarked) [Compound 345] | < 0.1 | > 10 | > 10 | > 10
Cn1cc2cc(-c3cc(F)c4c(=O)n(C5CCNCC5)cnc4c3)cc(F)c2n1 [Compound 314] | > 10 | 1 to 10 | 1 to 10 | 1 to 10
Cc1nc2c(F)cc(-c3ccc4c(=O)n(C5CCN(C)CC5)cnc4c3)cc2s1 [Compound 301] | 1 to 10 | 1 to 10 | 1 to 10 | 1 to 10
Cc1cn2cc(-c3ccc4c(=O)n(C5CCN(C)CC5)cnc4c3)ncc2n1 [Compound 308] | 1 to 10 | 1 to 10 | 1 to 10 | 1 to 10
Cc1cn2cc(-c3cc(F)c4c(=O)n(C5CCNCC5(F)F)cnc4c3)cc(F)c2n1 (centres unmarked) [Compound 339] | > 10 | > 10 | > 10 | > 10
Cc1cn2nc(-c3cc(F)c4c(=O)n(C5CCNC6(CC6)C5)cnc4c3)cc(C)c2n1 (centres unmarked) [Compound 351] | < 0.1 | < 0.1 | < 0.1 | 0.1 to 1
Cc1cn2cc(-c3ccc4c(=O)n(C5CCNCC5)cnc4c3)cc(Cl)c2n1 [Compound 291] | 0.1 to 1 | 0.1 to 1 | 0.1 to 1 | < 0.1
Cc1nc2c(F)cc(-c3ccc4c(=O)n(C5CCNCC5)cnc4c3)cc2s1 [Compound 285] | > 10 | 0.1 to 1 | 1 to 10 | 0.1 to 1
Cc1cn2cc(-c3cc(F)c4c(=O)n(N5CCNCC5)cnc4c3)cc(F)c2n1 [Compound 340, 5-fluoro-7-{8-fluoro-2-methylimidazo[1,2-a]pyridin-6-yl}-3-(piperazin-1-yl)quinazolin-4-one] | 0.1 to 1 | < 0.1 | 0.1 to 1 | 0.1 to 1
CCN1CCC(n2ncc3cc(-c4cc(C)c5nc(C)cn5n4)ccc3c2=O)CC1 [Compound 266] | 0.1 to 1 | 0.1 to 1 | < 0.1 | 0.1 to 1
Cc1cn2nc(-c3cc(O)c4c(=O)n(C5CCNC5)cnc4c3)cc(C)c2n1 (centres unmarked) [Compound 362, 7-{2,8-dimethylimidazo[1,2-b]pyridazin-6-yl}-5-hydroxy-3-(pyrrolidin-3-yl)quinazolin-4-one] | > 10 | 1 to 10 | > 10 | 1 to 10
CNc1cc(-c2cc(C)c3nc(C)cn3n2)cc2ncn(C3CCNCC3)c(=O)c12 [Compound 359, 7-{2,8-dimethylimidazo[1,2-b]pyridazin-6-yl}-5-(methylamino)-3-(piperidin-4-yl)quinazolin-4-one] | > 10 | 0.1 to 1 | 0.1 to 1 | 0.1 to 1
CNc1cc(-c2cc(F)c3nc(C)cn3c2)cc2ncn(C3CCNCC3)c(=O)c12 [Compound 358, 7-{8-fluoro-2-methylimidazo[1,2-a]pyridine-6-yl}-5-(methylamino)-3-(piperidin-4-yl)quinazolin-4-one] | > 10 | 1 to 10 | 1 to 10 | 1 to 10

SMILES | IC50 (Target C) [µM] | IC50 (MYB) [µM] | IC50 (HTT) [µM] | GI50 [1] [µM]
COc1cc(-c2cc(F)c3c(=O)n(C4CCNCC4)cnc3c2)cnn1 [Compound 320] | > 10 | > 10 | > 10 | > 10
Cc1cn2nc(-c3ccc4c(c3)CCN(C3CCN(C)C3)C4=O)cc(C)c2n1 (centres unmarked) [Compound 282] | > 10 | 1 to 10 | > 10 | > 10
Cc1cn2nc(-c3ccc4c(=O)n(C5CCN(C)CC5)ccc4c3)cc(C)c2n1 [Compound 310] | 0.1 to 1 | 0.1 to 1 | 0.1 to 1 | 1 to 10
Cc1cn2nc(-c3cc(C)c4c(=O)n(C5CCNCC5)cnc4c3)cc(C)c2n1 [Compound 355] | 0.1 to 1 | < 0.1 | < 0.1 | 0.1 to 1
Cc1cn2nc(-c3ccc4c(=O)n([C@@H]5CCN[C@H](C)C5)ncc4c3)cc(C)c2n1 [Compound 272] | 0.1 to 1 | 0.1 to 1 | < 0.1 | 0.1 to 1
Cc1cn2nc(-c3ccc4c(c3)CCN(C3CCNC3)C4=O)cc(C)c2n1 (centres unmarked) [Compound 269] | > 10 | 1 to 10 | > 10 | > 10
Cc1cn2nc(-c3cc(F)c4c(=O)n([C@H]5CCNC6(CC6)C5)cnc4c3)cc(C)c2n1 (single isomer, unassigned) [Compound 357] | < 0.1 | < 0.1 | < 0.1 | < 0.1
Cc1cn2nc(-c3cc(F)c4c(=O)n(C5CCNCC5)cnc4c3)cc2c(C)n1 [Compound 318] | 0.1 to 1 | < 0.1 | < 0.1 | 0.1 to 1
Cc1cc(-c2cnc3c(=O)n(C4CCNCC4)cnc3c2)cc2cn(C)nc12 [Compound 311] | 1 to 10 | 1 to 10 | 1 to 10 | 1 to 10
Cc1cn2nc(-c3ccc4c(=O)n(C5CCNCC5)cnc4c3)cc2c(C)n1 [Compound 298] | 1 to 10 | 0.1 to 1 | 0.1 to 1 | 1 to 10
Cc1cn2nc(-c3ccc4c(=O)n(C5CCN(C)CC5)cnc4c3)nc2c(C)n1 [Compound 288, 7-{6,8-dimethyl-[1,2,4]triazolo[1,5-a]pyrazin-2-yl}1-3-(1-methylpiperidin-4-yl)quinazolin-4-one] | 1 to 10 | 1 to 10 | 1 to 10 | 1 to 10
CNc1cc(-c2cc(C#N)c3nc(C)cn3c2)cc2ncn(C3CCNCC3)c(=O)c12 [Compound 363, 2-methyl-6-[5-(methylamino)-4-oxo-3-(piperidin-4-yl)quinazolin-7-yl]imidazo[1,2-a]pyridine-8-carbonitrile] | > 10 | 1 to 10 | > 10 | 1 to 10
Cc1cn2cc(-c3ccc4c(=O)n(C5CCNCC5)ccc4c3)cc(F)c2n1 [Compound 276] | < 0.1 | < 0.1 | < 0.1 | < 0.1
Cc1cn2cc(-c3ccc4c(=O)n(C5CCNCC5)cnc4c3)cc(C(F)(F)F)c2n1 [Compound 306] | 1 to 10 | 1 to 10 | 0.1 to 1 | 0.1 to 1
Cn1cc2cc(-c3cc(F)c4c(=O)n(C5CCNCC5)cnc4c3)cc(C#N)c2n1 [Compound 316] | 0.1 to 1 | < 0.1 | 0.1 to 1 | 0.1 to 1
Cc1cn2nc(-c3ccc4c(c3)CCN(C3CCN(C)CC3)C4=O)cc(C)c2n1 [Compound 268] | > 10 | 0.1 to 1 | 1 to 10 | 1 to 10
Cc1cn2cc(-c3ccc4c(=O)n(C5CCN[C@@H](C)C5)cnc4c3)cc(F)c2n1 (some centres unmarked) [Compound 294] | 1 to 10 | 0.1 to 1 | 0.1 to 1 | 0.1 to 1
Cc1cn2cc(-c3ccc4c(=O)n([C@@H]5CCN[C@@H](C)C5)cnc4c3)cc(F)c2n1 [Compound 293] | 1 to 10 | 0.1 to 1 | 0.1 to 1 | 0.1 to 1
Cc1cn2cc(-c3cc(F)c4c(=O)n([C@H]5CCNC[C@@H]5F)cnc4c3)cc(F)c2n1 (relative stereo) [Compound 341, 5-fluoro-7-(8-fluoro-2-methylimidazo[1,2-a]pyridin-6-yl)-3-(trans-3-fluoropiperidin-4-yl)quinazolin-4(3H)-one] | 1 to 10 | 0.1 to 1 | 1 to 10 | 0.1 to 1

Reference: US20250332173A1, “COMPOUNDS AND METHODS FOR MODULATING NUCLEIC ACID SPLICING” (REMIX THERAPEUTICS INC., priority 2021, published 2025)
